According to US5880158A, “Propionamide anticonvulsants” (Research Corporation Tech., Inc., priority 1997, dated 1999):

Tests used:
[1] = rotorod test, neurologic toxicity in mice; assay type: in vivo; settings: mouse, ip, intraperitoneal, at time of peak effect, numbers in parentheses 95% confidence intervals, read-out: Tox TD50
Protocol: (§1) Activity was established using the electrical (maximal electroshock or MES) test. In the MES test, a drop of electrolyte solution with anesthetic (0.5% butacaine hemisulfate in 0.9% sodium chloride) was used in the eyes of the animals prior to positioning the corneal electrodes and delivery of current. A 60 cycle alternating current was administered for 0.2 sec. at 50 mA. Protection endpoints were defined as the abolition of the hind limb tonic extensor component of the induced seizure. In mice, the effects of compounds on forced spontaneous motor activity were determined using the rotorod test. […] Normally under these conditions, a mouse can maintain its balance almost indefinitely. In the mouse identification screening study all compounds were given at three dose levels (30, 100, 300 mg/kg) and two time periods (0.5, 4h). Typically, in the MES seizures test one animal was used at 30 mg/kg and 300 mg/kg, and three animals at 100 mg/kg. In the rotorod toxicity test four animals were used at 30 mg/kg, and 300 mg/kg, and eight animals at 100 mg/kg. If activity was found at 30 mg/kg, then lower dosages were used to find the ED50 values.

[2] = test system: male albino Cartworth Farms No. 1 mice; assay: maximal electroshock seizure (MES) test in mice; assay type: in vivo; settings: intraperitoneal; for ED50: Mus musculus, ip, at time of peak effect, numbers in parentheses 95% confidence intervals
Protocol: as §1

[3] = test system: male albino Cartworth Farms No. 1 mice; assay: protective index (TD50/ED50), rotorod versus MES in mice; settings: for protective index (in words): compared with phenytoin, phenobarbital and valproate
Text: Compounds were screened under the auspices of the National Institutes of Health for anticonvulsant activity in male albino Cartworth Farms No. 1 mice (ip route). Activity was established using the electrical (maximal electroshock or MES) test. In the MES test, a drop of electrolyte solution with anesthetic (0.5% butacaine hemisulfate in 0.9% sodium chloride) was used in the eyes of the animals prior to positioning the corneal electrodes and delivery of current. A 60 cycle alternating current was administered for 0.2 sec. at 50 mA. Protection endpoints were defined as the abolition of the hind limb tonic extensor component of the induced seizure. In mice, the effects of compounds on forced spontaneous motor activity were determined using the rotorod test. […] Normally under these conditions, a mouse can maintain its balance almost indefinitely. In the mouse identification screening study all compounds were given at three dose levels (30, 100, 300 mg/kg) and two time periods (0.5, 4h). Typically, in the MES seizures test one animal was used at 30 mg/kg and 300 mg/kg, and three animals at 100 mg/kg. In the rotorod toxicity test four animals were used at 30 mg/kg, and 300 mg/kg, and eight animals at 100 mg/kg.
The quantitative determination of the median effective (ED50) and toxic doses (TD50) were conducted at previously calculated times of peak effect. Groups of at least eight animals were tested using different doses of test compound until at least two points were determined between 100 and 0% protection and minimal motor impairment. The dose of candidate substance required to produce the defined endpoint in 50% of the animals in each test and the 95% confidence interval were calculated.

[4] = test system: male albino Cartworth Farms No. 1 mice; assay: rotorod test, neurologic toxicity in mice; assay type: in vivo; settings: intraperitoneal, at time of peak effect, numbers in parentheses 95% confidence intervals
Protocol: as §1

| SMILES | TD50 [1] [mg/kg] | anticonvulsant activity / efficacy (in words) ([2]; MES) | ED50 [2] [mg/kg] | Tox TD50 [4] [mg/kg] | other results |
| --- | --- | --- | --- | --- | --- |
| O=C(NCc1ccccc1)C(O)CO (racemic) [R, S OH CH2 OH, N-Benzyl 2,3-Dihydroxypropionamide] | > 300 | very low anticonvulsant activity | – | – | – |
| COC[C@@H](OC)C(=O)NCc1ccccc1 [R OCH3 CH2 OCH3, (R)-N-Benzyl-2,3-dimethoxypropionamide] | 300 | – | – | – | – |
| COCC(OC)C(=O)NCc1ccccc1 (stereo not shown) [R, S OCH3 CH2 OCH3, N-BENZYL 2,3-DIMETHOXY PROPIONAMIDE] | 280 | much greater efficacy | 30 | – | ED50, times more effective than that of the dihydroxy compound ([2]; MES, diether versus dihydroxy compound): greater than 3 times; protective index (in words) ([3]; listed as N-Benzyl 2,3-dimethyoxypropionamide): unexpectedly high protective index; protective index (in words) ([3]; listed as diether): significantly greater than the P.I. values of phenytoin, phenobarbital and valproate; P.I. (protective index, TD50/ED50) ([3]; intraperitoneal): 9.3; P.I., times more effective than that of the dihydroxy compound ([3]; intraperitoneal, diether versus dihydroxy compound): greater than 3 times |
| CCC1(c2ccccc2)C(=O)NC(=O)NC1=O [phenobarbital] | – | – | 22 | – | – |
| O=C1NC(=O)C(c2ccccc2)(c2ccccc2)N1 [phenytoin] | – | – | 6.5 | 43 | – |
| CCCC(CCC)C(=O)O [valproate] | – | – | 290 | 480 | – |
